Experimental data as given in PMC9090415, “Discovery of small molecule inhibitors of Plasmodium falciparum apicoplast DNA polymerase” (Journal of Enzyme Inhibition and Medicinal Chemistry, 2022).

Biological target: P. falciparum apicoplast DNA polymerase (Pf-apPOL) (Plasmodium falciparum, UniProt Q8ILY1)
Assay: Fluorescence-based high-throughput DNA polymerase assay (molecular beacon), primary screen and dose-response;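 for % inhibition ApPOL 90': test concentration in µM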;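 for % inhibition apPOL 180': test concentration in µM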
Type: biochemical
Conditions: for DNA Pol: 90 min, 10 µM
Outline: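 Single-point screening used 10 µM compound with 20 nM polymerase, 20 nM hairpin substrate and 6 µM dNTPs for 90 min at 25 °C. Confirmatory titrations (2.5–80 µM) followed fluorescence at three times, and IC50 was derived from a fit including a cooperativity term n.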

[1] = 'DNA Pol' of the 186 hits list (primary screen value)

Sequence of P. falciparum apicoplast DNA polymerase (Pf-apPOL) (Q8ILY1 entry or part of it): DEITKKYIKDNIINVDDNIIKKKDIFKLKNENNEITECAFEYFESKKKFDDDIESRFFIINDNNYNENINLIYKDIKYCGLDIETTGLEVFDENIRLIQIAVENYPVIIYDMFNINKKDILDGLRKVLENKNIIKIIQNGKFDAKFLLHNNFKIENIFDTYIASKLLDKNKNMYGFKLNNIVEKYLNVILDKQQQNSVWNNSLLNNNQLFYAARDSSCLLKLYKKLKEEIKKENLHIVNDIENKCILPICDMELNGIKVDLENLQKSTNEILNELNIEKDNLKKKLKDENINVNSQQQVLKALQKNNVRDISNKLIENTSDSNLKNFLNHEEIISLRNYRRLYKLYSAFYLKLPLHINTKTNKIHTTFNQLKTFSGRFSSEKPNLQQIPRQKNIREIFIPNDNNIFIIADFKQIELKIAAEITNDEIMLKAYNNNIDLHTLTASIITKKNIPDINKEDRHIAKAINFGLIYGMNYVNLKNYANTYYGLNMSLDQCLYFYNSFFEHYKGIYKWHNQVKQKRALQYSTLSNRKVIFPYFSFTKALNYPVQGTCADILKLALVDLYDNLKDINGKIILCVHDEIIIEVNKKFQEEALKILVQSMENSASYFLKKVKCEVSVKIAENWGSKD

Compound: Cc1ccc(C)n1-c1ccc(C(=O)NNC(=O)c2ccc3nccnc3c2)cc1 [Molecule 53, O=C(c1ccc(cc1)n1c(C)ccc1C)NNC(=O)c1ccc2c(c1)nccn2]
- DNA Pol ("DNA Pol" of the 186 hits list (screen value)): 84
- % inhibition Apo pol 10' (DRC-1, concentration 2.5): 0.1394%
- % inhibition Apo pol 10' (DRC-1, concentration 5): 8.124%
- % inhibition Apo pol 10' (DRC-1, concentration 10): 19.7971%
- % inhibition Apo pol 10' (DRC-1, concentration 20): 46.3145%
- % inhibition Apo pol 10' (DRC-1, concentration 40): 80.1476%
- % inhibition Apo pol 10' (DRC-1, concentration 80): 83.7947%
- % inhibition Apol 90' (DRC-1, concentration 2.5): -3.841%
- % inhibition Apol 90' (DRC-1, concentration 5): -1.933%
- % inhibition Apol 90' (DRC-1, concentration 10): 7.019%
- % inhibition Apol 90' (DRC-1, concentration 20): 31.5983%
- % inhibition Apol 90' (DRC-1, concentration 40): 69.8424%
- % inhibition Apol 90' (DRC-1, concentration 80): 79.5478%
- % inhibition apPOL 180' (DRC-1, concentration 2.5): -5.424%
- % inhibition apPOL 180' (DRC-1, concentration 5): -7.03%
- % inhibition apPOL 180' (DRC-1, concentration 10): 0.2997%
- % inhibition apPOL 180' (DRC-1, concentration 20): 17.1559%
- % inhibition apPOL 180' (DRC-1, concentration 40): 57.2023%
- % inhibition apPOL 180' (DRC-1, concentration 80): 72.0846%
- % inhibition Apo pol 5' (DRC-2, concentration 2.5): 0%
- % inhibition Apo pol 5' (DRC-2, concentration 5): 1.67%
- % inhibition Apo pol 5' (DRC-2, concentration 10): 25%
- % inhibition Apo pol 5' (DRC-2, concentration 20): 46%
- % inhibition Apo pol 5' (DRC-2, concentration 40): 55%
- % inhibition Apo pol 5' (DRC-2, concentration 80): 57%
- % inhibition Apol 40' (DRC-2, concentration 2.5): 3.18%
- % inhibition Apol 40' (DRC-2, concentration 5): 2%
- % inhibition Apol 40' (DRC-2, concentration 10): 23%
- % inhibition Apol 40' (DRC-2, concentration 20): 50%
- % inhibition Apol 40' (DRC-2, concentration 40): 64%
- % inhibition Apol 40' (DRC-2, concentration 80): 72%
- % inhibition ApPOL 90' (DRC-2, concentration 2.5): 0.241%
- % inhibition ApPOL 90' (DRC-2, concentration 5): 1.15%
- % inhibition ApPOL 90' (DRC-2, concentration 10): 18%
- % inhibition ApPOL 90' (DRC-2, concentration 20): 47%
- % inhibition ApPOL 90' (DRC-2, concentration 40): 64%
- % inhibition ApPOL 90' (DRC-2, concentration 80): 74%
- % inhibition apPOL 180' (DRC-2, concentration 2.5): -1.53%
- % inhibition apPOL 180' (DRC-2, concentration 5): -2.77%
- % inhibition apPOL 180' (DRC-2, concentration 10): 10%
- % inhibition apPOL 180' (DRC-2, concentration 20): 37%
- % inhibition apPOL 180' (DRC-2, concentration 40): 56%
- % inhibition apPOL 180' (DRC-2, concentration 80): 73%
- DNA Pol (primary screen value, DNA Pol): 84

Compound: Cc1ccc(-n2nnc(C(=O)O)c2-c2ccccn2)c(F)c1 [Molecule 54, Cc1ccc(c(c1)F)n1nnc(c1c1ccccn1)C(=O)O]
- DNA Pol [1]: 25
- DNA Pol (DNA Pol (primary screen value)): 25
- % inhibition Apo pol 10' (DRC-1, concentration 2.5): 7.865%
- % inhibition Apo pol 10' (DRC-1, concentration 5): 13.3823%
- % inhibition Apo pol 10' (DRC-1, concentration 10): 36.76%
- % inhibition Apo pol 10' (DRC-1, concentration 20): 54.7705%
- % inhibition Apo pol 10' (DRC-1, concentration 40): 63.8546%
- % inhibition Apo pol 10' (DRC-1, concentration 80): 49.8653%
- % inhibition Apol 90' (DRC-1, concentration 2.5): 0.06529%
- % inhibition Apol 90' (DRC-1, concentration 5): 1.171%
- % inhibition Apol 90' (DRC-1, concentration 10): 17.5602%
- % inhibition Apol 90' (DRC-1, concentration 20): 37.4412%
- % inhibition Apol 90' (DRC-1, concentration 40): 61.51%
- % inhibition Apol 90' (DRC-1, concentration 80): 66.8702%
- % inhibition apPOL 180' (DRC-1, concentration 2.5): -5.444%
- % inhibition apPOL 180' (DRC-1, concentration 5): -7.146%
- % inhibition apPOL 180' (DRC-1, concentration 10): 5.348%
- % inhibition apPOL 180' (DRC-1, concentration 20): 21.3721%
- % inhibition apPOL 180' (DRC-1, concentration 40): 53.298%
- % inhibition apPOL 180' (DRC-1, concentration 80): 71.3072%
- % inhibition Apo pol 5' (DRC-2, concentration 2.5): 5%
- % inhibition Apo pol 5' (DRC-2, concentration 5): 15%
- % inhibition Apo pol 5' (DRC-2, concentration 10): 31%
- % inhibition Apo pol 5' (DRC-2, concentration 20): 33%
- % inhibition Apo pol 5' (DRC-2, concentration 40): 21%
- % inhibition Apo pol 5' (DRC-2, concentration 80): -14%
- % inhibition Apol 40' (DRC-2, concentration 2.5): 5.55%
- % inhibition Apol 40' (DRC-2, concentration 5): 10%
- % inhibition Apol 40' (DRC-2, concentration 10): 27%
- % inhibition Apol 40' (DRC-2, concentration 20): 42%
- % inhibition Apol 40' (DRC-2, concentration 40): 48%
- % inhibition Apol 40' (DRC-2, concentration 80): 33%
- % inhibition ApPOL 90' (DRC-2, concentration 2.5): 3.47%
- % inhibition ApPOL 90' (DRC-2, concentration 5): 6%
- % inhibition ApPOL 90' (DRC-2, concentration 10): 22%
- % inhibition ApPOL 90' (DRC-2, concentration 20): 39%
- % inhibition ApPOL 90' (DRC-2, concentration 40): 52%
- % inhibition ApPOL 90' (DRC-2, concentration 80): 45%
- % inhibition apPOL 180' (DRC-2, concentration 2.5): 0.3%
- % inhibition apPOL 180' (DRC-2, concentration 5): -1.15%
- % inhibition apPOL 180' (DRC-2, concentration 10): 13%
- % inhibition apPOL 180' (DRC-2, concentration 20): 28%
- % inhibition apPOL 180' (DRC-2, concentration 40): 51%
- % inhibition apPOL 180' (DRC-2, concentration 80): 55%

Compound: COc1ccc(CNC(=O)Cn2nc3c(c2NC(=O)Cc2cccs2)CSC3)cc1 [Molecule 55, COc1ccc(cc1)CNC(=O)Cn1nc2c(c1NC(=O)Cc1cccs1)CSC2]
- DNA Pol [1]: 42
- DNA Pol (DNA Pol (primary screen value)): 42
- % inhibition Apo pol 10' (DRC-1, concentration 2.5): 7.186%
- % inhibition Apo pol 10' (DRC-1, concentration 5): 13.7887%
- % inhibition Apo pol 10' (DRC-1, concentration 10): 43.1349%
- % inhibition Apo pol 10' (DRC-1, concentration 20): 61.7989%
- % inhibition Apo pol 10' (DRC-1, concentration 40): 74.6193%
- % inhibition Apo pol 10' (DRC-1, concentration 80): 82.9138%
- % inhibition Apol 90' (DRC-1, concentration 2.5): -3.211%
- % inhibition Apol 90' (DRC-1, concentration 5): 0.071%
- % inhibition Apol 90' (DRC-1, concentration 10): 21.9926%
- % inhibition Apol 90' (DRC-1, concentration 20): 39.7839%
- % inhibition Apol 90' (DRC-1, concentration 40): 59.3907%
- % inhibition Apol 90' (DRC-1, concentration 80): 77.3387%
- % inhibition apPOL 180' (DRC-1, concentration 2.5): -10.7492%
- % inhibition apPOL 180' (DRC-1, concentration 5): -8.12%
- % inhibition apPOL 180' (DRC-1, concentration 10): 5.391%
- % inhibition apPOL 180' (DRC-1, concentration 20): 18.5765%
- % inhibition apPOL 180' (DRC-1, concentration 40): 40.1483%
- % inhibition apPOL 180' (DRC-1, concentration 80): 66.9877%
- % inhibition Apo pol 5' (DRC-2, concentration 2.5): -0.186%
- % inhibition Apo pol 5' (DRC-2, concentration 5): -3.35%
- % inhibition Apo pol 5' (DRC-2, concentration 10): 16%
- % inhibition Apo pol 5' (DRC-2, concentration 20): 23%
- % inhibition Apo pol 5' (DRC-2, concentration 40): 32%
- % inhibition Apo pol 5' (DRC-2, concentration 80): 26%
- % inhibition Apol 40' (DRC-2, concentration 2.5): -0.881%
- % inhibition Apol 40' (DRC-2, concentration 5): -4.6%
- % inhibition Apol 40' (DRC-2, concentration 10): 17%
- % inhibition Apol 40' (DRC-2, concentration 20): 23%
- % inhibition Apol 40' (DRC-2, concentration 40): 47%
- % inhibition Apol 40' (DRC-2, concentration 80): 53%
- % inhibition ApPOL 90' (DRC-2, concentration 2.5): -1.87%
- % inhibition ApPOL 90' (DRC-2, concentration 5): -7%
- % inhibition ApPOL 90' (DRC-2, concentration 10): 13%
- % inhibition ApPOL 90' (DRC-2, concentration 20): 19%
- % inhibition ApPOL 90' (DRC-2, concentration 40): 45%
- % inhibition ApPOL 90' (DRC-2, concentration 80): 63%
- % inhibition apPOL 180' (DRC-2, concentration 2.5): -6.63%
- % inhibition apPOL 180' (DRC-2, concentration 5): -14%
- % inhibition apPOL 180' (DRC-2, concentration 10): 1.41%
- % inhibition apPOL 180' (DRC-2, concentration 20): 5%
- % inhibition apPOL 180' (DRC-2, concentration 40): 35%
- % inhibition apPOL 180' (DRC-2, concentration 80): 65%
